From ChEMBL document CHEMBL4354801, “Design, Synthesis, and Structure-Activity Relationships of 1,2,3-Triazole Benzenesulfonamides as New Selective Leucine-Zipper and Sterile-α Motif Kinase (ZAK) Inhibitors” (J Med Chem, 2020) come the findings set out here.

Data set [1] has as its target T1, Mitogen-activated protein kinase kinase kinase 20 (Homo sapiens, UniProt Q9NYL2). Kind of data set: Inhibition of N-terminal GST-tagged recombinant human full-length ZAK expressed in baculovirus infected Sf9 insect cells using MBP as substrate after 30 mins by ADP-Glo assay. Background: ADP-Glo first removes unused ATP, then detects ADP through luciferase.
In data set [2] the target is Serine/threonine-protein kinase B-raf (Homo sapiens, UniProt P15056, V600E). Kind of data set: Inhibition of recombinant human B-RAF V600E mutant using Ser/Thr3 as substrate after 1 hr by FRET-based Z'-Lyte assay.
Sequence of Serine/threonine-protein kinase B-raf (P15056 2-766 V600E limits assumed): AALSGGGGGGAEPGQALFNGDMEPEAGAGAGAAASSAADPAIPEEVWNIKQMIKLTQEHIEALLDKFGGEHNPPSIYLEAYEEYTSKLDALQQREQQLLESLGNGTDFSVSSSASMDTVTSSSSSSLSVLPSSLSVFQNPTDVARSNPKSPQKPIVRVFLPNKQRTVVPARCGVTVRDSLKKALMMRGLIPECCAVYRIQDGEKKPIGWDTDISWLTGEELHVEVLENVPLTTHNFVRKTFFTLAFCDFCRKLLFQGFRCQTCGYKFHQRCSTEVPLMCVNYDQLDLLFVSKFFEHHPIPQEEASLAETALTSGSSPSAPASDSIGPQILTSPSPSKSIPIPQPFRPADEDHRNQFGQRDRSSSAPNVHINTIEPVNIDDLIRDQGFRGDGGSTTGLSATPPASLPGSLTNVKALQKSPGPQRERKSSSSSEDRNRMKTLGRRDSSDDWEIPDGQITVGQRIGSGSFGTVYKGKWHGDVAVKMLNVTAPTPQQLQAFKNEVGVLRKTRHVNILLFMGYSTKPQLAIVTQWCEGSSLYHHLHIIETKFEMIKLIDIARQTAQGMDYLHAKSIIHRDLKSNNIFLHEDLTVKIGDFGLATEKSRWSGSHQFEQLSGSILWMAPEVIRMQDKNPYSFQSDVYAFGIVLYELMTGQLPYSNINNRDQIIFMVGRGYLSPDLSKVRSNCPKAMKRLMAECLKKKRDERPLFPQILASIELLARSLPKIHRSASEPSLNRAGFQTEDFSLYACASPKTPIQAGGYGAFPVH
Data set [3] is described as follows: AUC (0 to t) in Sprague-Dawley rat at 10 mg/kg, po by HPLC/MS analysis. Type of data set: ADME, organism-based. The conditions noted are these: in vivo.
In data set [4] the target is T2, Tyrosine-protein kinase ABL1 (Homo sapiens, UniProt P00519). As to the kind of experiment: Inhibition of human ABL1.
T2 sequence (P00519 whole entry, the tested form may be a part): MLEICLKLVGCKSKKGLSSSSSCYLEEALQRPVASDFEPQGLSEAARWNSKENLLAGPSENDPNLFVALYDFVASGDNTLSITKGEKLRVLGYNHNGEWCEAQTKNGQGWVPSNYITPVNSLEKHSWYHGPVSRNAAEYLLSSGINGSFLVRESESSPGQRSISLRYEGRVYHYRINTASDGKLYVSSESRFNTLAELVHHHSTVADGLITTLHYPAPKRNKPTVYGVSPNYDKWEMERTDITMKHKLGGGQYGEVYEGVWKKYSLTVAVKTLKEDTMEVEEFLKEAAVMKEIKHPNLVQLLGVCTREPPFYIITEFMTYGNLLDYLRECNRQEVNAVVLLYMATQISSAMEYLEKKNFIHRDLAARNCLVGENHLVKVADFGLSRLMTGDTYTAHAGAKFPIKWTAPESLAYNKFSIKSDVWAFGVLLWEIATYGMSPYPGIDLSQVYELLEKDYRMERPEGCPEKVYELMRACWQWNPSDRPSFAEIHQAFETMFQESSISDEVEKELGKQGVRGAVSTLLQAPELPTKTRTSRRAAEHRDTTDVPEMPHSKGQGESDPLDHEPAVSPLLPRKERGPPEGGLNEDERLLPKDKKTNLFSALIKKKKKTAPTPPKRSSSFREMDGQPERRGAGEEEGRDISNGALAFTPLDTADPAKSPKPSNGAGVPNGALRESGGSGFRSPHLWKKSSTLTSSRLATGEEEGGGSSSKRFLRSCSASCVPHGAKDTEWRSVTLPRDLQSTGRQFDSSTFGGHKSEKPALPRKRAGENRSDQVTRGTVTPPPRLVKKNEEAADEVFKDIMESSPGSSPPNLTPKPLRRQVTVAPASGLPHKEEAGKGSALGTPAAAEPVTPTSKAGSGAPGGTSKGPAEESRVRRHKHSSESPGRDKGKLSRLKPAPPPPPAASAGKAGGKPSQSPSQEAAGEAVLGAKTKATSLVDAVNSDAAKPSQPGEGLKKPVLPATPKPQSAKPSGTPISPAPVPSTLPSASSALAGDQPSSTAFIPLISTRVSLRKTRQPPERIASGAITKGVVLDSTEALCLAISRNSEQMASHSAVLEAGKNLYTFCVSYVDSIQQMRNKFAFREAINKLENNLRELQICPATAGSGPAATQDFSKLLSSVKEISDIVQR
The target in another data set is LIM domain kinase 2 (Homo sapiens, UniProt P53671). As to the kind of experiment: Binding affinity to human LIMK2.
Sequence of LIM domain kinase 2 (P53671 whole entry, the tested form may be a part): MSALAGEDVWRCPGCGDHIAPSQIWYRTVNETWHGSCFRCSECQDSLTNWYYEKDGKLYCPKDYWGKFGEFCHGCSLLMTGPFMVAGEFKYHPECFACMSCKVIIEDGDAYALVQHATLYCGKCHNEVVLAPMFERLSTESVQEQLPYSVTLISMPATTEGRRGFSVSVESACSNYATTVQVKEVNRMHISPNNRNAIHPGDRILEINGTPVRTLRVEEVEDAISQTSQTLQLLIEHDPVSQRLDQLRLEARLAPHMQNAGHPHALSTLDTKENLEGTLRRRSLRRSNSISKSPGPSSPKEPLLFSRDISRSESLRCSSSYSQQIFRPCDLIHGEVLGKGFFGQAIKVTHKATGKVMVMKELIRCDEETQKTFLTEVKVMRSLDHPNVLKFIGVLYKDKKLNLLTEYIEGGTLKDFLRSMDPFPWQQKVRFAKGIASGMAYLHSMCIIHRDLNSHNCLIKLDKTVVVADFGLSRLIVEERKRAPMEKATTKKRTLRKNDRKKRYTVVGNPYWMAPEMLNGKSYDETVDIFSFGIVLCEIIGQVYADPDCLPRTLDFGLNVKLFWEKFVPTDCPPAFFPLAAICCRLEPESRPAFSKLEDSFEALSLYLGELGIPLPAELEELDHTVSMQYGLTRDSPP
Data set [5] is described as follows: Cmax in Sprague-Dawley rat at 2.5 mg/kg, iv by HPLC/MS analysis. Type of data set: ADME, organism-based. On the set-up: dose 2.5 mg/kg, route intravenous. The conditions noted are these: in vivo.
Data set [6] in a line: Half life in Sprague-Dawley rat at 10 mg/kg, po by HPLC/MS analysis. Conditions: in vivo. The format is ADME, organism-based.
Data set [7] is described as follows: Oral bioavailability in Sprague-Dawley rat at 10 mg/kg by HPLC/MS analysis. The format is ADME, organism-based. The conditions noted are these: in vivo.
A short description of data set [8]: Effect on ZAKalpha protein expression in rat H9C2 cells by Western blot analysis. On the technique in general: Immunoblotting shows a protein as a band on a membrane.
In data set [9] the target is Receptor-interacting serine/threonine-protein kinase 2 (Homo sapiens, UniProt O43353). Kind of data set: Binding affinity to human RIPK2.
Sequence of Receptor-interacting serine/threonine-protein kinase 2 (O43353 whole entry): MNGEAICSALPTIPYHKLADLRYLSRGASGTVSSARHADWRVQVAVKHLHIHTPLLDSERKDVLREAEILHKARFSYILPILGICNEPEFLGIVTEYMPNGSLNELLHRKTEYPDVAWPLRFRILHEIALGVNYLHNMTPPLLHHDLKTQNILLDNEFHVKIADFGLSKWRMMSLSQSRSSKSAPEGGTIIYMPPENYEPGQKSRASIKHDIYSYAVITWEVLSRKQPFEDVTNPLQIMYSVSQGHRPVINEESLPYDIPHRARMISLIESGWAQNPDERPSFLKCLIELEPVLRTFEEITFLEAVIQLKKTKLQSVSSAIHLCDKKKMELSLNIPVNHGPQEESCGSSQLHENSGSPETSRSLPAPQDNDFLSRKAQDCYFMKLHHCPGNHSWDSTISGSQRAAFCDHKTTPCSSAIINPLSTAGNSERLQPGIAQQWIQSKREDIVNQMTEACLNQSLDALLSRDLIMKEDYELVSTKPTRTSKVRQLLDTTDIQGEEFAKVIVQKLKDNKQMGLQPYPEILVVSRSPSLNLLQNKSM
Data set [10] can be described thus: AUC (0 to t) in Sprague-Dawley rat at 2.5 mg/kg, iv by HPLC/MS analysis. Type of data set: ADME, organism-based. Conditions: in vivo.
In data set [11] the target is Tyrosine-protein kinase Blk (Homo sapiens, UniProt P51451). Kind of data set: Binding affinity to human BLK.
Sequence of Tyrosine-protein kinase Blk (P51451 whole entry): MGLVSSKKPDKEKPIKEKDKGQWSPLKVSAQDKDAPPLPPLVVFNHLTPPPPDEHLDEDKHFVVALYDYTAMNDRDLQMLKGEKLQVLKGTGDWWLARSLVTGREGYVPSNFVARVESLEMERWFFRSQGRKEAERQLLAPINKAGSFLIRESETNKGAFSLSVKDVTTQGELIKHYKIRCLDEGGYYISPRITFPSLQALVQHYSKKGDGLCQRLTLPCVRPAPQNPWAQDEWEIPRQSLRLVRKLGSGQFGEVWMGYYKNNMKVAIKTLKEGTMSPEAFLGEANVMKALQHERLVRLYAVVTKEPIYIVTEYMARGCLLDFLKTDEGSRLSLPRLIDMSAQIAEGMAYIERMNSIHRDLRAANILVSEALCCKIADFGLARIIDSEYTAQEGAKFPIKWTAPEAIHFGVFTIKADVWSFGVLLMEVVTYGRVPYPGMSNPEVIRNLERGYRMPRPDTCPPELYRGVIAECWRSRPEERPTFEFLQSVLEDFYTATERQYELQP
Data set [12] deals with Rattus norvegicus. Kind of data set: Anti-hypertrophic cardiomyopathy activity in SHR rat assessed as left ventricular weight level elevation at 10 mg/kg, po once daily for 8 weeks (reference value: 0.89 +/- 0.005 g). The format is functional.
Data set [13] has as its target T1, Mitogen-activated protein kinase kinase kinase 20. As to the kind of experiment: Binding affinity to human ZAK.
A short description of data set [14]: Half life in Sprague-Dawley rat at 2.5 mg/kg, iv by HPLC/MS analysis. Type of data set: ADME, organism-based. Conditions: in vivo.
For data set [15], the system named is Rattus norvegicus. As to the kind of experiment: Anti-hypertrophic cardiomyopathy activity in SHR rat assessed as whole heart weight level elevation at 2.5 mg/kg, po once daily for 8 weeks (reference value: 1.23 +/- 0.006 g). The format is functional.
The subject of data set [16] is Rattus norvegicus. Kind of data set: Anti-hypertrophic cardiomyopathy activity in SHR rat assessed as left ventricular weight level elevation at 2.5 mg/kg, po once daily for 8 weeks (reference value: 0.89 +/- 0.005 g). The format is functional.
Data set [17] is described as follows: AUC (0 to infinity) in Sprague-Dawley rat at 2.5 mg/kg, iv by HPLC/MS analysis. Type of data set: ADME, organism-based. Set-up: dose 2.5 mg/kg, route intravenous, time infinity. Conditions: in vivo.
Data set [18] concerns the target T2, Tyrosine-protein kinase ABL1. As to the kind of experiment: Binding affinity to human ABL1.
Another data set concerns the target LIM domain kinase 1 (Homo sapiens, UniProt P53667). Kind of data set: Binding affinity to human LIMK1.
The target of data set [19] is T1, Mitogen-activated protein kinase kinase kinase 20. Kind of data set: Binding affinity to ATP-binding site of human ZAK expressed in Escherichia coli by active site-dependent competition binding assay.
A short description of data set [20]: Cmax in Sprague-Dawley rat at 10 mg/kg, po by HPLC/MS analysis. Conditions: in vivo. Type of data set: ADME, organism-based. On the set-up: dose 10 mg/kg, route oral.
The target of data set [21] is Tyrosine-protein kinase Lck (Homo sapiens, UniProt P06239). As to the kind of experiment: Binding affinity to human LCK.
Data set [22] in a line: Clearance in Sprague-Dawley rat at 2.5 mg/kg, iv by HPLC/MS analysis. Type of data set: ADME, organism-based. The conditions noted are these: in vivo.
In data set [23] the target is Receptor-type tyrosine-protein kinase FLT3 (Homo sapiens, UniProt P36888, F691L). Kind of data set: Binding affinity to human FLT3 F691L mutant.
The nature of data set [24]: AUC (0 to infinity) in Sprague-Dawley rat at 10 mg/kg, po by HPLC/MS analysis. Conditions: in vivo. On the set-up: dose 10 mg/kg, route oral, time infinity. The format is ADME, organism-based.
For data set [25], the system named is Rattus norvegicus. As to the kind of experiment: Anti-hypertrophic cardiomyopathy activity in SHR rat assessed as whole heart weight level elevation at 10 mg/kg, po once daily for 8 weeks (reference value: 1.23 +/- 0.006 g). The format is functional.

pIC50, pKd: −log10 of the molar value. Bounds are passed on as bounds.

T1 sequence (Q9NYL2 whole entry): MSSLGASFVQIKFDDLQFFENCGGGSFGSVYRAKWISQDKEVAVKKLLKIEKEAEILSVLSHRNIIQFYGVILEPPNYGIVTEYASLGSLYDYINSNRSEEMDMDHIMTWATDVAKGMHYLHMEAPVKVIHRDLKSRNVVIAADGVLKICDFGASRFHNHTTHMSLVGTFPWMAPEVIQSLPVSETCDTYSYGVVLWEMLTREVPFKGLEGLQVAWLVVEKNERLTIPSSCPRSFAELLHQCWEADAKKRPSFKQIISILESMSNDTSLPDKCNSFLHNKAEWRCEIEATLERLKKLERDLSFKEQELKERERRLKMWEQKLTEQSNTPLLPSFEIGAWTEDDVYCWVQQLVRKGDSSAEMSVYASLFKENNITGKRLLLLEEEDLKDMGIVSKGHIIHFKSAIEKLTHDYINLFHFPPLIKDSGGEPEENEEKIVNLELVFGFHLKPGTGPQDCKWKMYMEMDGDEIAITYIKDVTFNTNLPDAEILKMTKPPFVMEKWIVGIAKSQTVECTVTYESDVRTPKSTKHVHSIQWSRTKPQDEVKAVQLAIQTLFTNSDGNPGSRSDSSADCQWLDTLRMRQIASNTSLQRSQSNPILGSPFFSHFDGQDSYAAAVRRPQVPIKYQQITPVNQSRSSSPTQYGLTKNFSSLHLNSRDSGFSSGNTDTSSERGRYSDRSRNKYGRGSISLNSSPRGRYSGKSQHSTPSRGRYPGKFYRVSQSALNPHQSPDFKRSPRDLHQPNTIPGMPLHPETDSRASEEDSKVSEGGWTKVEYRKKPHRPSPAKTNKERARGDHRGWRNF
Sequence of LIM domain kinase 1 (P53667 whole entry, the tested form may be a part): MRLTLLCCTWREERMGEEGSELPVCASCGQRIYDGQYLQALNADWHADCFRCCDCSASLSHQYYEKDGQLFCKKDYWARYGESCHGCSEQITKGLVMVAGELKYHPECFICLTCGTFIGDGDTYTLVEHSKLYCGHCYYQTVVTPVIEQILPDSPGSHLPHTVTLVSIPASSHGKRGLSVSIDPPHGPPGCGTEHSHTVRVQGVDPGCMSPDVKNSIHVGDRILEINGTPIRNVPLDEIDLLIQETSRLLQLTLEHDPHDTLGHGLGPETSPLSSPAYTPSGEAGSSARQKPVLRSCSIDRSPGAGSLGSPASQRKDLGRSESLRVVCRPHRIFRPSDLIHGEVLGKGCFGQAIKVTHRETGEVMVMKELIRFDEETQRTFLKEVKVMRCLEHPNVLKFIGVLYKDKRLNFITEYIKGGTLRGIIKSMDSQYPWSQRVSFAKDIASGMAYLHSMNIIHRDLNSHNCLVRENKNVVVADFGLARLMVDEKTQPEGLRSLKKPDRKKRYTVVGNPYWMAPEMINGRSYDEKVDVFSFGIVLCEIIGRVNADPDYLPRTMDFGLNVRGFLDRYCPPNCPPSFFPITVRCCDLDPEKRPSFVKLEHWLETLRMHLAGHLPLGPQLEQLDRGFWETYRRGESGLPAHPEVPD

As usually defined, the pIC50 is −log10 of the IC50, conventionally taken in molar units. In the case of `COc1n[nH]c2ncc(-c3cn(-c4cccc(NS(=O)(=O)c5cccc(Cl)c5)c4)nn3)cc12`, the figures for the pIC50 in [1] and in data set [2] were 7.61 and below 6.00, respectively.

As for `Nc1ccc(-c2cn(-c3c(F)ccc(NS(=O)(=O)c4cccc(Cl)c4)c3F)nn2)cn1`, the pIC50 in [1] is 7.34; in data set [2], below 6.00.

Take `COc1n[nH]c2ncc(-c3cn(-c4c(F)ccc(NS(=O)(=O)c5ccccc5)c4F)nn3)cc12`: the pIC50 was 8.42 in data set [1] and 7.41 in data set [2].

Turning to `COc1n[nH]c2ncc(-c3cn(-c4c(F)ccc(NC(=O)c5cccc(Cl)c5)c4F)nn3)cc12`, the pIC50 was 7.27 in [1] and 7.94 in [2].

For the molecule `COc1n[nH]c2ncc(-c3cn(-c4c(F)ccc(NC(=O)Nc5cccc(Cl)c5)c4F)nn3)cc12`, the pIC50 in [1] was 7.28; in data set [2], 7.29.

In the case of `COc1n[nH]c2ncc(-c3nnc(-c4c(F)ccc(NS(=O)(=O)c5cccc(Cl)c5)c4F)o3)cc12`, the negative logarithm of the IC50 (pIC50) in [1] was 7.20; in data set [2] it was below 6.00.

For `COc1n[nH]c2ncc(-c3cn(-c4c(F)ccc(NS(=O)(=O)c5cccc(C(C)C)c5)c4F)nn3)cc12`, the values for the negative logarithm of the IC50 (pIC50) in [1] and in data set [2] were 8.16 and 6.72, respectively.

By AUC(0-t) is commonly meant the area under the concentration-time curve up to a stated or last time point. Higher therefore signals high exposure. For orientation: pKd means −log10 of the Kd, conventionally taken in molar units. A high value points to a low Kd. In general, Cmax refers to the maximum level reached in the sampled fluid or tissue. For orientation: half-life means the time needed for the level to fall by half in the phase considered. Low readings indicate fast loss, high ones slow loss. Usually bioavailability stands for dose-corrected exposure relative to a reference, in per cent. Low values mean little systemic uptake, high ones much systemic uptake. For orientation: AUC(0-inf) means the area under the concentration-time curve extrapolated to infinity. Lower therefore signals less exposure. A word on the clearance: it is the volume of plasma or blood freed of the substance per unit of time. High values mean efficient removal, low ones inefficient removal. Turning to `COc1n[nH]c2ncc(-c3cn(-c4c(F)ccc(NS(=O)(=O)c5cccc(-c6ccccc6)c5)c4F)nn3)cc12`, the AUC(0-t) is 71600 ng·h/mL in data set [3] and 27400 ng·h/mL in [10]. The pIC50 was 6.81 in [4], 8.40 in data set [1] and below 6.00 in data set [2]. The pKd at LIM domain kinase 2 is 7.20; in data set [9], 7.24; in [11], 6.72; in data set [13] it was 8.10; in [18], 7.82; at LIM domain kinase 1, 7.64. The pKd was 8.10 in data set [19], 6.80 in data set [21] and 6.28 in data set [23]. Besides, the peak concentration (Cmax) was found to be 34200 ng/mL in [5] and 16400 ng/mL in [20]. For the same molecule, the half-life was 1.7 h in data set [6] and 1.6 h in data set [14]. Besides, in data set [7], the bioavailability came out at 65.3%. The Activity result in data set [8] is “Non-Toxic”; in the data set on Rattus norvegicus [12], 0.78 g; in the data set with Rattus norvegicus [15], 1.18 g; in the data set on Rattus norvegicus [16], 0.82 g; in the data set on Rattus norvegicus [25], 1.13 g. The total exposure AUC(0-inf) in [17] turned out to be 27900 ng·h/mL; in data set [24], 71800 ng·h/mL. This molecule gave a clearance in data set [22] of 1.53 mL/min/kg.

Take `Nc1ncc(-c2cn(-c3c(F)ccc(NS(=O)(=O)c4cccc(Cl)c4)c3F)nn2)cn1`: the negative logarithm of the IC50 (pIC50) in data set [1] was 8.05; in data set [2], below 6.00.

For `COc1n[nH]c2ncc(-c3cn(-c4c(F)ccc(NS(=O)(=O)c5ccc6ccccc6c5)c4F)nn3)cc12`, the results for the pIC50 in [1] and in [2] were 8.35 and 6.07, respectively.

Regarding `COc1cccc(S(=O)(=O)Nc2ccc(F)c(-n3cc(-c4cnc5[nH]nc(OC)c5c4)nn3)c2F)c1`, the pIC50 in [1] was 8.64; in [2], 6.57.

`COc1n[nH]c2ncc(-c3cn(-c4c(F)ccc(NC(=O)Cc5cccc(Cl)c5)c4F)nn3)cc12`: the values for the pIC50 in [1] and in data set [2] were 7.07 and 7.08, respectively.

Regarding `COc1n[nH]c2ncc(-c3cn(-c4c(F)ccc(NS(=O)(=O)c5cccc(C)c5)c4F)nn3)cc12`, the pIC50 is 8.36 in data set [1] and 6.34 in data set [2].

Turning to `COc1n[nH]c2ncc(-c3cn(-c4cc(NS(=O)(=O)c5cccc(Cl)c5)ccc4F)nn3)cc12`, the pIC50 in data set [1] was 8.24; in data set [2], 6.48.

With `COc1n[nH]c2ncc(-c3nc(-c4c(F)ccc(NS(=O)(=O)c5cccc(Cl)c5)c4F)no3)cc12`, the pIC50 in [1] was 7.54; in data set [2] it was below 6.00.

For the molecule `COc1n[nH]c2ncc(-c3cn(-c4c(F)ccc(NS(=O)(=O)c5cccc(Cl)c5)c4F)nn3)cc12`, the pIC50 in data set [1] is 8.72; in data set [2], 6.70.

Regarding `COc1n[nH]c2ncc(C#Cc3c(F)ccc(NS(=O)(=O)c4cccc(Cl)c4)c3F)cc12`, the negative logarithm of the IC50 (pIC50) in [1] is 7.83; in data set [2] it was below 6.00.

For `COc1n[nH]c2ncc(-c3cn(-c4c(Cl)ccc(NS(=O)(=O)c5cccc(Cl)c5)c4Cl)nn3)cc12`, the pIC50 was 6.38 in data set [1] and 6.36 in data set [2].

In the case of `COc1n[nH]c2ncc(-c3cn(-c4c(F)ccc(NS(=O)(=O)c5cccc6ccccc56)c4F)nn3)cc12`, the pIC50 in [1] is 8.38; in data set [2] it was 6.90.

Consider `COc1n[nH]c2ncc(-c3cn(-c4c(F)ccc(NS(=O)(=O)c5cccc(C#N)c5)c4F)nn3)cc12`, for which the pIC50 in data set [1] is 8.48; in [2], 6.33.

Consider `COc1n[nH]c2ncc(-c3cn(-c4c(F)ccc(NS(=O)(=O)c5cccc(Br)c5)c4F)nn3)cc12`, for which the results for the pIC50 in data set [1] and in data set [2] were 8.68 and 6.56, respectively.

Regarding `COc1n[nH]c2ncc(-c3cn(-c4cccc(NS(=O)(=O)c5cccc(Cl)c5)c4F)nn3)cc12`, the pIC50 in data set [1] was 8.52; in [2] it was 6.10.

`COc1n[nH]c2ncc(-c3ncc(-c4c(F)ccc(NS(=O)(=O)c5cccc(Cl)c5)c4F)[nH]3)cc12`: the pIC50 in data set [1] was 6.01; in data set [2] it was below 6.00.
